Experimental data taken from patent US12257247B2 (Monte Rosa Therapeutics AG, priority 2023, dated 2025).
Where two headings read alike, the source gives them in different places. Values belong to the compound of their own block, whether it stands above or below them.

Target: T1, VAV1 (Homo sapiens, UniProt P15498+Q96SW2)
T1 construct: A heterozygous VAV1 C-terminal HiBiT knock-in pool was generated at Monte Rosa Therapeutics from a clonal Jurkat cell; endogenous in cells; host or cells: Jurkat clone stably expressing LgBiT, homozygous GSPT1-G575N; heterozygous VAV1-HiBiT knock-in pool
Test: VAV1 degradation activity, VAV1-HiBiT knock-in Jurkat luminescence assay (Example A, Table 1)
Assay type: cell-based
Conditions: VAV1-HiBiT knock-in Jurkat cells, luminescence read at 6 and 24 hours after compound addition; for Dmax: Jurkat
Method in brief: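 Jurkat cells carrying VAV1-HiBiT knock-in, plated in RPMI/10% FBS with Endurazine live-cell substrate and pre-incubated ~16 h at 37° C. Compound dosed from 10 μM stock; luminescence read 6 and 24 h later. Response normalised to plate negative/positive controls, EC50 from 3-parameter logistic fit (hillslope 1).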

[1] = read-out: VAV1 DC50 (nM), class

SMILES: O=C1CCC(c2cccc(-c3ccc4c(c3)OCCN4)c2Cl)C(=O)N1 (stereo not shown) [Compound 487, 3-(2-chloro-3-(3,4-dihydro-2H-benzo[b][1,4]oxazin-7-yl)phenyl)piperidine-2,6-dione]
Dmax (read-out: VAV1 Dmax %): 82.8% | Dmax (read-out: VAV1 Dmax %, class): 60 to 90% | DC50 (read-out: VAV1 DC50): 23.7 nM | DC50 [1]: ≤ 100 nM

SMILES: CN1CCc2cc(-c3cccc(C4CCC(=O)NC4=O)c3Cl)ccc21 (stereo not shown) [Compound 488, 3-(2-chloro-3-(1-methylindolin-5-yl)phenyl)piperidine-2,6-dione]
Dmax (read-out: VAV1 Dmax %): 91% | Dmax (read-out: VAV1 Dmax %, class): > 90% | DC50 (read-out: VAV1 DC50): 17.2 nM | DC50 [1]: ≤ 100 nM

SMILES: O=C1CCC(c2cccc(-c3ccc4c(c3)CCN4)c2Cl)C(=O)N1 (stereo not shown) [Compound 490, 3-(2-chloro-3-(indolin-5-yl)phenyl)piperidine-2,6-dione]
Dmax (read-out: VAV1 Dmax %): 74.5% | Dmax (read-out: VAV1 Dmax %, class): 60 to 90% | DC50 (read-out: VAV1 DC50): 131 nM | DC50 [1]: 100 to 1000 nM

SMILES: O=C1CCC(c2cccc(-c3ccc4c(c3)CCN4)c2F)C(=O)N1 (stereo not shown) [Compound 491, 3-(2-fluoro-3-(indolin-5-yl)phenyl)piperidine-2,6-dione]
Dmax (read-out: VAV1 Dmax %): 88.5% | Dmax (read-out: VAV1 Dmax %, class): 60 to 90% | DC50 (read-out: VAV1 DC50): 15.7 nM | DC50 [1]: ≤ 100 nM

SMILES: O=C1CCC(c2cccc(-c3ccc4c(c3)CC(=O)N4)c2Cl)C(=O)N1 (stereo not shown) [Compound 493, 3-(2-chloro-3-(2-oxoindolin-5-yl)phenyl)piperidine-2,6-dione]
Dmax (read-out: VAV1 Dmax %): 75.7% | Dmax (read-out: VAV1 Dmax %, class): 60 to 90% | DC50 (read-out: VAV1 DC50): 502 nM | DC50 [1]: 100 to 1000 nM

SMILES: O=C1CCC(c2cccc(-c3cnc4c(c3)OCCN4)c2Cl)C(=O)N1 (stereo not shown) [Compound 494, 3-(2-chloro-3-(3,4-dihydro-2H-pyrido[3,2-b][1,4]oxazin-7-yl)phenyl)piperidine-2,6-dione]
Dmax (read-out: VAV1 Dmax %): 61.2% | Dmax (read-out: VAV1 Dmax %, class): 60 to 90% | DC50 (read-out: VAV1 DC50): 929 nM | DC50 [1]: 100 to 1000 nM

SMILES: CC1(C)Cc2cc(-c3cccc(C4CCC(=O)NC4=O)c3Cl)ccc2N1 (stereo not shown) [Compound 497, 3-(2-chloro-3-(2,2-dimethylindolin-5-yl)phenyl)piperidine-2,6-dione]
Dmax (read-out: VAV1 Dmax %): 95.8% | Dmax (read-out: VAV1 Dmax %, class): > 90% | DC50 (read-out: VAV1 DC50): 18 nM | DC50 [1]: ≤ 100 nM

Stronger by DC50 (read-out: VAV1 DC50), values ahead:

Dmax (read-out: VAV1 Dmax %): 96.2% | Dmax (read-out: VAV1 Dmax %, class): > 90% | DC50 (read-out: VAV1 DC50): 6.51 nM | DC50 [1]: ≤ 100 nM
SMILES: O=C1CCC(c2cccc(-c3ccc4c(c3)CCCN4)c2Cl)C(=O)N1 (stereo not shown) [Compound 486, 3-(2-chloro-3-(1,2,3,4-tetrahydroquinolin-6-yl)phenyl)piperidine-2,6-dione]

Dmax (read-out: VAV1 Dmax %): 97.8% | Dmax (read-out: VAV1 Dmax %, class): > 90% | DC50 (read-out: VAV1 DC50): 2.84 nM | DC50 [1]: ≤ 100 nM
SMILES: Cn1ccc(CN2CCc3cc(-c4cccc(C5CCC(=O)NC5=O)c4Cl)ccc32)n1 (stereo not shown) [Compound 489, 3-(2-chloro-3-(1-((1-methyl-1H-pyrazol-3-yl)methyl)indolin-5-yl)phenyl)piperidine-2,6-dione]

Dmax (read-out: VAV1 Dmax %): 94.3% | Dmax (read-out: VAV1 Dmax %, class): > 90% | DC50 (read-out: VAV1 DC50): 10.7 nM | DC50 [1]: ≤ 100 nM
SMILES: O=C1CCC(c2cccc(-c3ccc4c(c3)CCC(=O)N4)c2Cl)C(=O)N1 (stereo not shown) [Compound 492, 3-(2-chloro-3-(2-oxo-1,2,3,4-tetrahydroquinolin-6-yl)phenyl)piperidine-2,6-dione]

Dmax (read-out: VAV1 Dmax %): 95.6% | Dmax (read-out: VAV1 Dmax %, class): > 90% | DC50 (read-out: VAV1 DC50): 12.7 nM | DC50 [1]: ≤ 100 nM
SMILES: Cn1ccc(CN2C(=O)Cc3cc(-c4cccc(C5CCC(=O)NC5=O)c4Cl)ccc32)n1 (stereo not shown) [Compound 496, 3-(2-chloro-3-(1-((1-methyl-1H-pyrazol-3-yl)methyl)-2-oxoindolin-5-yl)phenyl)piperidine-2,6-dione]

Dmax (read-out: VAV1 Dmax %): 98% | Dmax (read-out: VAV1 Dmax %, class): > 90% | DC50 (read-out: VAV1 DC50): 11.8 nM | DC50 [1]: ≤ 100 nM
SMILES: Cn1ccc(Cn2ncc3cc(-c4cccc(C5CCC(=O)NC5=O)c4Cl)ccc32)n1 (stereo not shown) [Compound 498, 3-(2-chloro-3-(1-((1-methyl-1H-pyrazol-3-yl)methyl)-1H-indazol-5-yl)phenyl)piperidine-2,6-dione]

Dmax (read-out: VAV1 Dmax %): 97.9% | Dmax (read-out: VAV1 Dmax %, class): > 90% | DC50 (read-out: VAV1 DC50): 5.45 nM | DC50 [1]: ≤ 100 nM
SMILES: Cn1ccc(Cn2ccc3cc(-c4cccc(C5CCC(=O)NC5=O)c4Cl)ccc32)n1 (stereo not shown) [Compound 499, 3-(2-chloro-3-(1-((1-methyl-1H-pyrazol-3-yl)methyl)-1H-indol-5-yl)phenyl)piperidine-2,6-dione]
